# Source: patent US11000033B2, “Ketone or oxime compound, and herbicide” (NISSAN CHEMICAL CORPORATION, priority 2014, dated 2021)
# What was measured:
# Format in all cases: in vivo
# [1] = system: Echinochloa crus-galli var. crus-galli; test: Test Example 3: herbicidal effect by foliage application, Wagner pot (symbol H); conditions: application herbicide amount 320 g/ha; for H (Echinochloa crus-galli var. crus-galli) herbicidal effect grade: Table 24
# In short: (§1)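 Steps: fill pot with alluvial soil; add water to 0.1–0.5 cm depth; sow weed and rice seed; grow 14 days at 25–30 °C; spray diluted emulsion over the leaves; rate effect after 3 weeks.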
# [2] = system: Echinochloa oryzacola Vasing.; test: Test Example 2: herbicidal activity, application during weed generation in submerged conditions (symbol A); conditions: Table 23; application herbicide amount 320 g/ha; grade 0-5 by criteria of Test Example 1
# In short: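 Submerged alluvial soil (4 cm) sown with mixed seed; greenhouse 25–30° C. 1–2 leaf: diluted emulsion onto water surface, preset dose. Visual score, 3 wk.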
# beet = test: Test Example 4: effect on crop by soil treatment (symbol f); conditions: for f: beet, effect grade on crop: 320 g/ha
# In short: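 Soil-treatment setup: crop and weed seeds were spot-sown into sterilized diluvial soil, then buried beneath approximately 1.5 cm of it, and the boxes were housed in a 25–30° C. greenhouse.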
# Lolium multiflorum Lam. = test: Test Example 4: herbicidal effect by soil treatment (symbol K); conditions: for K: Lolium multiflorum Lam., herbicidal effect grade: 320 g/ha
# In short: (§2)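 Seeds were sown in sterilized diluvial soil, covered with about 1.5 cm of soil, and the soil surface was sprayed with a water-diluted emulsion of the compound at a predetermined rate. Plants grew in a greenhouse at 25° C. to 30° C.; effects were scored visually 3 weeks after application.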
# soybean = test: Test Example 5: effect on crop by foliage application, plastic box (symbol d); conditions: 320 g/ha, 3 weeks after application
# In short: (§3)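 In a plastic box 7 cm deep filled with sterilized diluvial soil, seeds of crops and weeds such as Digitaria ciliaris, Avena fatua and Amaranthus retroflexus are sown in spots and covered with about 1.5 cm of soil before greenhouse growth at 25–30° C.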
# corn = test: Test Example 5: effect on crop by foliage application, plastic box (symbol c); conditions: 320 g/ha, 3 weeks after application
# In short: as §3
# transplanted rice plant = test: Test Example 1: effect on crop, application before weed generation in submerged conditions (symbol a); conditions: application herbicide amount 320 g/ha
# In short: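 Rice at 2.5 leaf stage transplanted into submerged soil (4 cm depth) sown with three weed species; herbicide applied before weed emergence.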
# Chenopodium album = test: Test Example 4: herbicidal effect by soil treatment (symbol O); conditions: for O: Chenopodium album, herbicidal effect grade: 320 g/ha
# In short: as §2
# Monochoria vaginalis = test: Test Example 1: herbicidal activity, application before weed generation in submerged conditions (symbol C); conditions: application herbicide amount 320 g/ha
# In short: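 Application before weed emergence: an aqueous dilution of the emulsion formulation was poured onto the surface of 4 cm-deep floodwater on the day of sowing. Effect was judged after 3 weeks (greenhouse, 25–30 °C).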
# [3] = system: directly sowed rice plant; test: Test Example 3: effect on crop by foliage application, Wagner pot (symbol b); conditions: application herbicide amount 320 g/ha; for b (directly sowed rice plant) effect on crop grade: Table 24
# In short: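 Plants are raised from seed in flooded paddy conditions: water stands 0.1–0.5 cm over alluvial soil, and the pot is kept in a greenhouse at 25–30 °C. Species sown are barnyardgrass (E. crus-galli var. crus-galli), Leptochloa chinensis, Cyperus difformis and rice.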
# Leptochloa chinensis = test: Test Example 3: herbicidal effect by foliage application, Wagner pot (symbol D); conditions: application herbicide amount 320 g/ha; for D (Leptochloa chinensis) herbicidal effect grade: Table 24
# In short: as §1
# Digitaria ciliaris = test: Test Example 4: herbicidal effect by soil treatment (symbol F); conditions: for F: Digitaria ciliaris, herbicidal effect grade: 320 g/ha
# In short: as §2
# [4] = application herbicide amount 320 g/ha
smiles,measurement,setting,value
COC(=O)C(C(=O)C1CC1)C1CC(O)=C(c2c(C)cc(Br)cc2C)C1=O (mixture of isomers) [10-002],H (Echinochloa crus-galli var. crus-galli) herbicidal effect grade,[1],5 (Herbicidal ratio of 90% or more (almost completely withered))
same,"Herbicidal effect grade, A: Echinochloa oryzacola Vasing.",[2],1 (Herbicidal ratio of 5% or higher and lower than 20%)
same,"Effect on crop grade, f: beet",beet; [4],0 (Herbicidal ratio of 5% or lower (almost no effect))
same,"Herbicidal effect grade, K: Lolium multiflorum Lam.",Lolium multiflorum Lam.; [4],4 (Herbicidal ratio of 70% or higher and lower than 90%)
same,"d: soybean, effect on crop grade",soybean,0 (Herbicidal ratio of 5% or lower (almost no effect))
same,"c: corn, effect on crop grade",corn,5 (Herbicidal ratio of 90% or more (almost completely withered))
same,a (transplanted rice plant) effect on crop grade,transplanted rice plant,1 (Herbicidal ratio of 5% or higher and lower than 20%)
same,"Herbicidal effect grade, O: Chenopodium album",Chenopodium album; [4],0 (Herbicidal ratio of 5% or lower (almost no effect))
same,C (Monochoria vaginalis) herbicidal effect grade,Monochoria vaginalis,0 (Herbicidal ratio of 5% or lower (almost no effect))
same,b (directly sowed rice plant) effect on crop grade,[3],5 (Herbicidal ratio of 90% or more (almost completely withered))
same,D (Leptochloa chinensis) herbicidal effect grade,Leptochloa chinensis,5 (Herbicidal ratio of 90% or more (almost completely withered))
same,"Herbicidal effect grade, F: Digitaria ciliaris",Digitaria ciliaris; [4],4 (Herbicidal ratio of 70% or higher and lower than 90%)
CC(CC1CC(O)=C(c2c(C)cc(C)cc2C)C1=O)=NOCc1ccccc1C(F)(F)F (stereo not drawn) [1-116],"herbicidal effect on H (Echinochloa crus-galli var. crus-galli), grade 0-5",[1],5 (Herbicidal ratio of 90% or more (almost completely withered))
same,"Herbicidal effect grade, A: Echinochloa oryzacola Vasing.",[2],2 (Herbicidal ratio of 20% or higher and lower than 40%)
same,"f: beet, effect grade on crop",beet,0 (Herbicidal ratio of 5% or lower (almost no effect))
same,"K: Lolium multiflorum Lam., herbicidal effect grade",Lolium multiflorum Lam.,4 (Herbicidal ratio of 70% or higher and lower than 90%)
same,"d: soybean, effect on crop (criteria 0-5)",soybean,3 (Herbicidal ratio of 40% or higher and lower than 70%)
same,"c: corn, effect on crop (criteria 0-5)",corn,5 (Herbicidal ratio of 90% or more (almost completely withered))
same,"Effect grade on crop, a: transplanted rice plant",transplanted rice plant,3 (Herbicidal ratio of 40% or higher and lower than 70%)
same,"O: Chenopodium album, herbicidal effect grade",Chenopodium album,0 (Herbicidal ratio of 5% or lower (almost no effect))
same,"Herbicidal effect grade, C: Monochoria vaginalis",Monochoria vaginalis,5 (Herbicidal ratio of 90% or more (almost completely withered))
same,"effect on crop b (directly sowed rice plant), grade 0-5",[3],5 (Herbicidal ratio of 90% or more (almost completely withered))
same,"herbicidal effect on D (Leptochloa chinensis), grade 0-5",Leptochloa chinensis,3 (Herbicidal ratio of 40% or higher and lower than 70%)
same,"F: Digitaria ciliaris, herbicidal effect grade",Digitaria ciliaris,1 (Herbicidal ratio of 5% or higher and lower than 20%)
Cc1cc(Br)cc(C)c1C1=C(O)CC(CC(=O)C2CC2)C1=O (racemic) [10-004],H (Echinochloa crus-galli var. crus-galli) herbicidal effect grade,[1],5 (Herbicidal ratio of 90% or more (almost completely withered))
same,"Herbicidal effect grade, A: Echinochloa oryzacola Vasing.",[2],5 (Herbicidal ratio of 90% or more (almost completely withered))
same,"Effect on crop grade, f: beet",beet; [4],0 (Herbicidal ratio of 5% or lower (almost no effect))
same,"Herbicidal effect grade, K: Lolium multiflorum Lam.",Lolium multiflorum Lam.; [4],5 (Herbicidal ratio of 90% or more (almost completely withered))
same,"d: soybean, effect on crop grade",soybean,0 (Herbicidal ratio of 5% or lower (almost no effect))
same,"c: corn, effect on crop grade",corn,5 (Herbicidal ratio of 90% or more (almost completely withered))
same,a (transplanted rice plant) effect on crop grade,transplanted rice plant,5 (Herbicidal ratio of 90% or more (almost completely withered))
same,"Herbicidal effect grade, O: Chenopodium album",Chenopodium album; [4],0 (Herbicidal ratio of 5% or lower (almost no effect))
same,C (Monochoria vaginalis) herbicidal effect grade,Monochoria vaginalis,0 (Herbicidal ratio of 5% or lower (almost no effect))
same,b (directly sowed rice plant) effect on crop grade,[3],5 (Herbicidal ratio of 90% or more (almost completely withered))
same,D (Leptochloa chinensis) herbicidal effect grade,Leptochloa chinensis,5 (Herbicidal ratio of 90% or more (almost completely withered))
same,"Herbicidal effect grade, F: Digitaria ciliaris",Digitaria ciliaris; [4],5 (Herbicidal ratio of 90% or more (almost completely withered))
CON=C(C)CC1CC(OC(=O)c2nc(C)sc2C)=C(c2c(C)cc(C)cc2C)C1=O (stereo not drawn) [1-101],"herbicidal effect on H (Echinochloa crus-galli var. crus-galli), grade 0-5",[1],5 (Herbicidal ratio of 90% or more (almost completely withered))
same,"Herbicidal effect grade, A: Echinochloa oryzacola Vasing.",[2],5 (Herbicidal ratio of 90% or more (almost completely withered))
same,"f: beet, effect grade on crop",beet,3 (Herbicidal ratio of 40% or higher and lower than 70%)
same,"K: Lolium multiflorum Lam., herbicidal effect grade",Lolium multiflorum Lam.,5 (Herbicidal ratio of 90% or more (almost completely withered))
same,"d: soybean, effect on crop (criteria 0-5)",soybean,3 (Herbicidal ratio of 40% or higher and lower than 70%)
same,"c: corn, effect on crop (criteria 0-5)",corn,5 (Herbicidal ratio of 90% or more (almost completely withered))
same,"Effect grade on crop, a: transplanted rice plant",transplanted rice plant,5 (Herbicidal ratio of 90% or more (almost completely withered))
same,"O: Chenopodium album, herbicidal effect grade",Chenopodium album,0 (Herbicidal ratio of 5% or lower (almost no effect))
same,"Herbicidal effect grade, C: Monochoria vaginalis",Monochoria vaginalis,2 (Herbicidal ratio of 20% or higher and lower than 40%)
same,"effect on crop b (directly sowed rice plant), grade 0-5",[3],5 (Herbicidal ratio of 90% or more (almost completely withered))
same,"herbicidal effect on D (Leptochloa chinensis), grade 0-5",Leptochloa chinensis,5 (Herbicidal ratio of 90% or more (almost completely withered))
same,"F: Digitaria ciliaris, herbicidal effect grade",Digitaria ciliaris,5 (Herbicidal ratio of 90% or more (almost completely withered))
CON=C(C)CC1CC(OS(C)(=O)=O)=C(c2c(C)cc(C)cc2C)C1=O (stereo not drawn) [1-006],"herbicidal effect on H (Echinochloa crus-galli var. crus-galli), grade 0-5",[1],5 (Herbicidal ratio of 90% or more (almost completely withered))
same,"Herbicidal effect grade, A: Echinochloa oryzacola Vasing.",[2],5 (Herbicidal ratio of 90% or more (almost completely withered))
same,f (beet) effect on crop grade,beet; [4],0 (Herbicidal ratio of 5% or lower (almost no effect))
same,K (Lolium multiflorum Lam.) herbicidal effect grade,Lolium multiflorum Lam.; [4],5 (Herbicidal ratio of 90% or more (almost completely withered))
same,"d: soybean, effect on crop grade",soybean,4 (Herbicidal ratio of 70% or higher and lower than 90%)
same,"c: corn, effect on crop grade",corn,3 (Herbicidal ratio of 40% or higher and lower than 70%)
same,"Effect grade on crop, a: transplanted rice plant",transplanted rice plant,4 (Herbicidal ratio of 70% or higher and lower than 90%)
same,O (Chenopodium album) herbicidal effect grade,Chenopodium album; [4],0 (Herbicidal ratio of 5% or lower (almost no effect))
same,"Herbicidal effect grade, C: Monochoria vaginalis",Monochoria vaginalis,3 (Herbicidal ratio of 40% or higher and lower than 70%)
same,"effect on crop b (directly sowed rice plant), grade 0-5",[3],5 (Herbicidal ratio of 90% or more (almost completely withered))
same,"herbicidal effect on D (Leptochloa chinensis), grade 0-5",Leptochloa chinensis,5 (Herbicidal ratio of 90% or more (almost completely withered))
same,F (Digitaria ciliaris) herbicidal effect grade,Digitaria ciliaris; [4],5 (Herbicidal ratio of 90% or more (almost completely withered))
Cc1cc(C)c(C2=C(O)CC(CC(=NOCC(F)(F)F)C3CC3)C2=O)c(C)c1 (stereo not drawn) [1-131],"herbicidal effect on H (Echinochloa crus-galli var. crus-galli), grade 0-5",[1],5 (Herbicidal ratio of 90% or more (almost completely withered))
same,"Herbicidal effect grade, A: Echinochloa oryzacola Vasing.",[2],4 (Herbicidal ratio of 70% or higher and lower than 90%)
same,"f: beet, effect grade on crop",beet,0 (Herbicidal ratio of 5% or lower (almost no effect))
same,"K: Lolium multiflorum Lam., herbicidal effect grade",Lolium multiflorum Lam.,5 (Herbicidal ratio of 90% or more (almost completely withered))
same,"d: soybean, effect on crop (criteria 0-5)",soybean,0 (Herbicidal ratio of 5% or lower (almost no effect))
same,"c: corn, effect on crop (criteria 0-5)",corn,3 (Herbicidal ratio of 40% or higher and lower than 70%)
same,"Effect grade on crop, a: transplanted rice plant",transplanted rice plant,4 (Herbicidal ratio of 70% or higher and lower than 90%)
same,"O: Chenopodium album, herbicidal effect grade",Chenopodium album,0 (Herbicidal ratio of 5% or lower (almost no effect))
same,"Herbicidal effect grade, C: Monochoria vaginalis",Monochoria vaginalis,1 (Herbicidal ratio of 5% or higher and lower than 20%)
same,"effect on crop b (directly sowed rice plant), grade 0-5",[3],5 (Herbicidal ratio of 90% or more (almost completely withered))
same,"herbicidal effect on D (Leptochloa chinensis), grade 0-5",Leptochloa chinensis,5 (Herbicidal ratio of 90% or more (almost completely withered))
same,"F: Digitaria ciliaris, herbicidal effect grade",Digitaria ciliaris,4 (Herbicidal ratio of 70% or higher and lower than 90%)
